Results from patent US5334603A, “Composition and use of 3-phenyl-5-thiocyano-methylthio-1,3,4-thiadiazole-2(3h)thione” (The Dow Chemical Company, priority 1993, dated 1994).
In brackets after ≈: the same amount, converted by molar mass.

How the values were obtained:
Format in all cases: cell-based
[1] = system: Penicillium chrysogenum (Pc); assay: Minimum inhibitory concentration (MIC), malt yeast agar; details: pH 5.5; ATCC 9480; 30° C.; 48 hours for yeast, 72 hours for fungi
Description: (§1) The minimum inhibitory concentration (MIC) for the compound is determined for 9 bacteria, using nutrient agar; and 7 yeast and fungi, using malt yeast agar. A one percent solution of the test compound is prepared in a mixture of acetone and water. Nutrient agar is prepared at pH 6.8, representing a neutral medium, and at pH 8.2, representing an alkaline medium. The nutrient agars are prepared by adding 23 g of nutrient agar to one-liter of deionized water. In addition, the alkaline medium is prepared by adjusting a 0.04M solution of N-[tris-(hydroxymethyl)methyl]-glycine buffered deionized water with concentrated sodium hydroxide to a pH of […]. Malt yeast agar is prepared by adding 3 g yeast extract and 45 g malt agar per liter of deionized water. The specific agar is dispensed in 30 ml aliquots into 25×200 mm test tubes, capped and autoclaved for 15 minutes at 115° C. The test tubes containing the agar are cooled in a water bath until the temperature of the agar is 48 ° C. Then, an appropriate amount of the one percent solution of the test compound is added (except in the controls where no compound is added) to the respective test tubes so that the final concentrations are 500, 250, 100, 50, 25, 10, 5, 2.5, 1.0 and zero parts per million of the test compound in the agar, thus having a known concentration of test compound dispersed therein. The contents of the test tubes are then transferred to respective petri plates. After drying for 24 hours, the petri plates containing nutrient agar are inoculated with bacteria and those containing malt yeast agar are inoculated with yeast and fungi.
(§2) The inoculation with the yeast and fungi is accomplished as follows. Cultures of yeast and fungi are incubated for seven days on malt yeast agar at 30° C. These cultures are used to prepare suspensions by the following procedure. A suspension of each organism is prepared by adding 10 ml of sterile saline and 10 microliters of octylphenoxy polyethoxy ethanol to the agar slant of yeast or fungi. The sterile saline/octylphenoxy polyethoxy ethanol solution is then agitated with a sterile swab to suspend the microorganism grown on the slant. Each resulting suspension is diluted into sterile saline (1 part suspension: 9 parts sterile saline). Aliquots of these dilutions are placed in individual wells of Steer's Replicator and petri plates inoculated as previously described. The petri plates are incubated at 30° C. and read after 48 hours for yeast and 72 hours for fungi.

Aspergillus niger (An) = assay: as above; details: pH 5.5; ATCC 16404; 30° C.; 48 hours for yeast, 72 hours for fungi
Description: as §1, §2

Candida Albicans (Ca) = assay: as above; details: pH 5.5; ATCC 10231; 30° C.; 48 hours for yeast, 72 hours for fungi
Description: as §1, §2

Trichoderma viride (Tv) = assay: as above; details: pH 5.5; ATCC 8678; 30° C.; 48 hours for yeast, 72 hours for fungi
Description: as §1, §2

[2] = system: Saccharomyces cerevisiae (Sc); assay: as above; details: ATCC4105, pH 5.5, ATCC 4105, 30° C., 48 hours for yeast, 72 hours for fungi
Description: as §1, §2

Fusarium oxysporum (Fo) = assay: as above; details: pH 5.5; ATCC 48112; 30° C.; 48 hours for yeast, 72 hours for fungi
Description: as §1, §2

[3] = system: Aureobasidium pullulan (Ap); assay: as above; details: pH 5.5; ATCC 16622; 30° C.; 48 hours for yeast, 72 hours for fungi
Description: as §1, §2

Bacillus subtilis (Bs) = assay: Minimum inhibitory concentration (MIC), nutrient agar; details: 48 hours
Description: as §1
(§3) The inoculation with bacteria is accomplished by using the following procedure. Twenty-four hour-cultures of each of the bacteria are prepared by incubating the respective bacteria in tubes containing nutrient broth for 24 hours at 30° C. in a shaker. Dilutions of each of the 24 hour-cultures are made so that nine separate suspensions (one for each of the nine test bacteria) are made, each containing 10^8 colony forming units (CFU) per ml of suspension of a particular bacteria. Aliquots of 0.3 ml of each of the bacterial suspensions are used to fill the individual wells of Steer's Replicator. For each microbial suspension, 0.3 ml was used to fill three wells (i.e., three wells of 0.3 ml each) so that for the nine different bacteria, 27 wells are filled. The Steer's Replicator is then used to inoculate both the neutral and alkaline pH nutrient agar petri plates.
(§4) The inoculated petri plates are incubated at 30° C. for 48 hours and then read to determine if the test compound which is incorporated into the agar prevented growth of the respective bacteria.

Proteus vulgaris (Pv) = assay: as above; details: 48 hours
Description: as §1, §3, §4

[4] = system: Enterobacter aerogenes (Ea); assay: as above; details: Klebsiella aerogenes, ATCC13048, ATCC 13048, 30° C., 48 hours
Description: as §1, §3, §4

Escherichia coli (Ec) = assay: as above; details: 48 hours
Description: as §1, §3, §4

[5] = system: Salmonella choleraesuis (Sc); assay: as above; details: Salmonella enterica, ATCC 10708 / CHOLERAESUIS, 48 hours
Description: as §1, §3, §4

[6] = system: Staphylococcus aureus (Sa); assay: as above; details: 48 hours
Description: as §1, §3, §4

[7] = system: Pseudomonas aeruginosa (Pa); assay: as above; details: 48 hours
Description: as §1, §3, §4

[8] = system: Klebsiella pneumoniae (Kp); assay: as above; details: 48 hours
Description: as §1, §3, §4

[9] = system: Pseudomonas aeruginosa (PRD-10); assay: as above; details: 48 hours
Description: as §1, §3, §4

N#CSCSc1nn(-c2ccccc2)c(=S)s1 [INVENTION, 3-phenyl-5-thiocyanomethylthio-1,3,4-thiadiazole-2(3H)thione]
MIC [1]: 2.5 µg/mL (≈ 8.4 µM) | MIC (Aspergillus niger (An)): 5 µg/mL (≈ 16.8 µM) | MIC (Candida Albicans (Ca)): 25 µg/mL (≈ 84 µM) | MIC (Trichoderma viride (Tv)): 25 µg/mL (≈ 84 µM) | MIC [2]: 5 µg/mL (≈ 16.8 µM) | MIC (Fusarium oxysporum (Fo)): 10 µg/mL (≈ 33.6 µM) | MIC [3]: 2.5 µg/mL (≈ 8.4 µM) | MIC (Bacillus subtilis (Bs); ATCC8473, pH 6.8, ATCC 8473, 30° C.): 100 µg/mL (≈ 336 µM) | MIC (Bacillus subtilis (Bs); ATCC8473, pH 8.2, ATCC 8473, 30° C.): < 10 µg/mL | MIC (Proteus vulgaris (Pv); ATCC881, pH 6.8, ATCC 881, 30° C.): 100 µg/mL (≈ 336 µM) | MIC (Proteus vulgaris (Pv); ATCC881, pH 8.2, ATCC 881, 30° C.): 250 µg/mL (≈ 840 µM) | MIC ([4]; pH 6.8): 100 µg/mL (≈ 336 µM) | MIC ([4]; pH 8.2): > 500 µg/mL | MIC (Escherichia coli (Ec); ATCC11229, pH 6.8, ATCC 11229, 30° C.): 100 µg/mL (≈ 336 µM) | MIC (Escherichia coli (Ec); ATCC11229, pH 8.2, ATCC 11229, 30° C.): 500 µg/mL (≈ 1680 µM) | MIC ([5]; pH 6.8, 30° C.): 100 µg/mL (≈ 336 µM) | MIC ([5]; pH 8.2, 30° C.): 500 µg/mL (≈ 1680 µM) | MIC ([6]; ATCC6538, pH 6.8, ATCC 6538, 30° C.): 100 µg/mL (≈ 336 µM) | MIC ([6]; ATCC6538, pH 8.2, ATCC 6538, 30° C.): 250 µg/mL (≈ 840 µM) | MIC ([7]; ATCC10145, pH 6.8, ATCC 10145, 30° C.): 50 µg/mL (≈ 168 µM) | MIC ([7]; ATCC10145, pH 8.2, ATCC 10145, 30° C.): 50 µg/mL (≈ 168 µM) | MIC ([8]; ATCC8308, pH 6.8, ATCC 8308, 30° C.): 100 µg/mL (≈ 336 µM) | MIC ([8]; ATCC8308, pH 8.2, ATCC 8308, 30° C.): 250 µg/mL (≈ 840 µM) | MIC ([9]; ATCC15442, pH 6.8, ATCC 15442, 30° C.): 50 µg/mL (≈ 168 µM) | MIC ([9]; ATCC15442, pH 8.2, ATCC 15442, 30° C.): 100 µg/mL (≈ 336 µM)
